# Experimental data taken from patent US11866518B2, “Bicyclic peptide ligands specific for TSLP” (BicycleTx Limited, priority 2020, dated 2024).
# *1 amine or outer side, *2 acyl side, *3 side chain or, on linkers, in order; H or OH if unused. Where a SMILES comes first, the peptide text is derived from it. Bridges are numbered along the chain shown (N, C = ends). TATA = O=C(CC[*:1])N1CN(C(=O)CC[*:2])CN(C(=O)CC[*:3])C1
# Biological target: TSLP (Homo sapiens, UniProt Q969D9)
# Experiment: Human TSLP Surface Plasmon Resonance (SPR) binding assay
# Set-up: The resulting construct spCD33-6×HN-TEV-hTSLP(29-159)-Avi; 6xHN tag with TEV site (N, cleaved yes); made in house; host or cells: Expi293F cells
# Details: biotinylated human TSLP immobilized on streptavidin chip; 20° C.; steady-state or kinetic 1:1 fit; read-out: hTSLP SPR Kd
# Sequence of TSLP (Q969D9 29-159): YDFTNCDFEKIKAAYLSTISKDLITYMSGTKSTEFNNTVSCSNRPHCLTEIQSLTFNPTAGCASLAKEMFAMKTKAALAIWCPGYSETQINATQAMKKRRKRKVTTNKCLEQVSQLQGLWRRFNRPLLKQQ
row,SMILES,Kd [nM]
1,"CC[C@H](C)[C@H](NC(=O)[C@@H]1CCCN1C(=O)[C@H](C)NC(=O)[C@@H]1CSCCC(=O)N2CN3CN(C2)C(=O)CCSC[C@H](NC(=O)[C@H](CC(=O)O)NC(=O)[C@H](Cc2ccc(O)cc2)NC(=O)[C@H]([C@@H](C)O)NC(=O)[C@H](Cc2c[nH]c4ccccc24)NC(=O)[C@H](CC(N)=O)NC(=O)[C@H](Cc2c[nH]c4ccccc24)NC(=O)[C@H](CC(=O)O)NC(=O)[C@@H](NC(=O)[C@H](C)N)CSCCC3=O)C(=O)N[C@@H](Cc2c[nH]c3ccccc23)C(=O)N[C@@H](CC(C)C)C(=O)N[C@@H](CC(=O)O)C(=O)N1)C(N)=O [Example 206, A-(SEQ ID NO: 151)-API] (H-ACDWNWTYDCWLDCAPI-NH2; linker 2-10-14 via TATA; N-terminus and C-terminus assumed)",430
2,"CC(C)C[C@@H]1NC(=O)[C@H](Cc2c[nH]c3ccccc23)NC(=O)[C@@H]2CSCCC(=O)N3CN(CN(C3)C(=O)CCSC[C@@H](C(=O)N[C@@H](Cc3ccccc3)C(=O)N[C@@H](C)C(=O)N[C@@H](CCC(=O)O)C(N)=O)NC(=O)[C@@H]3CCCN3C1=O)C(=O)CCSC[C@H](NC(=O)[C@H](C)N)C(=O)N[C@@H](CC(=O)O)C(=O)N[C@@H](Cc1c[nH]c3ccccc13)C(=O)N[C@@H](CC(=O)O)C(=O)N[C@@H](Cc1c[nH]c3ccccc13)C(=O)N[C@@H](CC(=O)O)C(=O)N[C@@H](Cc1ccc(O)cc1)C(=O)N[C@@H](CC(=O)O)C(=O)N2 [Example 208, A-(SEQ ID NO: 153)-FAE] (H-ACDWDWDYDCWLPCFAE-NH2; linker 2-10-14 via TATA; N-terminus assumed)",340
3,"CC(C)C[C@@H]1NC(=O)[C@H](Cc2c[nH]c3ccccc23)NC(=O)[C@@H]2CSCCC(=O)N3CN(CN(C3)C(=O)CCSC[C@H](NC(=O)[C@H](CCC(=O)O)NC(=O)[C@H](Cc3c[nH]cn3)NC(=O)[C@H](Cc3c[nH]cn3)NC(=O)[C@H](CCC(N)=O)NC(=O)[C@H](CCC(=O)O)NC(=O)[C@@H](N)CC(=O)O)C(=O)N[C@@H](CC(=O)O)C(=O)N[C@@H](Cc3c[nH]c4ccccc34)C(=O)N[C@@H](Cc3c[nH]cn3)C(=O)N[C@@H](Cc3c[nH]c4ccccc34)C(=O)N[C@@H](CCC(=O)O)C(=O)N[C@@H](Cc3ccc(O)cc3)C(=O)N[C@@H](CC(=O)O)C(=O)N2)C(=O)CCSC[C@@H](C(=O)N[C@@H](C)C(N)=O)NC(=O)[C@H](CO)NC1=O [Example 209, DEQHHE-(SEQ ID NO: 144)-A]",910
4,"CC(C)C[C@@H]1NC(=O)[C@H](Cc2c[nH]c3ccccc23)NC(=O)[C@@H]2CSCCC(=O)N3CN(CN(C3)C(=O)CCSC[C@H](NC(=O)[C@@H]3CCCN3C(=O)[C@@H]3CCCN3C(=O)[C@H](CCC(=O)O)NC(=O)[C@@H](NC(=O)[C@@H]3CCCN3C(=O)[C@@H](N)CO)[C@@H](C)O)C(=O)N[C@@H](CC(=O)O)C(=O)N[C@@H](Cc3c[nH]c4ccccc34)C(=O)N[C@@H](Cc3c[nH]cn3)C(=O)N[C@@H](Cc3c[nH]c4ccccc34)C(=O)N[C@@H](CCC(=O)O)C(=O)N[C@@H](Cc3ccc(O)cc3)C(=O)N[C@@H](CC(=O)O)C(=O)N2)C(=O)CCSC[C@@H](C(N)=O)NC(=O)[C@H](CO)NC1=O [Example 215, SPTEPP-(SEQ ID NO: 144)]",240
5,"CC(C)C[C@@H]1NC(=O)[C@H](Cc2c[nH]c3ccccc23)NC(=O)[C@@H]2CSCCC(=O)N3CN(CN(C3)C(=O)CCSC[C@H](NC(=O)[C@H](CCC(=O)O)NC(=O)[C@H](CO)NC(=O)[C@@H]3CCCN3C(=O)[C@H](CO)NC(=O)[C@H](CCCNC(=N)N)NC(=O)[C@@H](N)CC(N)=O)C(=O)N[C@@H](CC(=O)O)C(=O)N[C@@H](Cc3c[nH]c4ccccc34)C(=O)N[C@@H](Cc3c[nH]cn3)C(=O)N[C@@H](Cc3c[nH]c4ccccc34)C(=O)N[C@@H](CCC(=O)O)C(=O)N[C@@H](Cc3ccc(O)cc3)C(=O)N[C@@H](CC(=O)O)C(=O)N2)C(=O)CCSC[C@@H](C(N)=O)NC(=O)[C@H](CO)NC1=O [Example 217, NRSPSE-(SEQ ID NO: 144)]",860
6,"CC(=O)N[C@H]1CSCCC(=O)N2CN3CN(C2)C(=O)CCSC[C@H](NC(=O)[C@H](CC(=O)O)NC(=O)[C@H](Cc2ccc(O)cc2)NC(=O)[C@H](CCC(=O)O)NC(=O)[C@H](Cc2c[nH]c4ccccc24)NC(=O)[C@H](Cc2c[nH]cn2)NC(=O)[C@H](Cc2c[nH]c4ccccc24)NC(=O)[C@H](CC(=O)O)NC1=O)C(=O)N[C@@H](Cc1c[nH]c2ccccc12)C(=O)N[C@@H](CC(C)C)C(=O)N[C@@H](CO)C(=O)N[C@H](C(N)=O)CSCCC3=O [Example 218, Ac-(SEQ ID NO: 144)]",2000
7,"CC(C)C[C@@H]1NC(=O)[C@H](Cc2c[nH]c3ccccc23)NC(=O)[C@@H]2CSCCC(=O)N3CN(CN(C3)C(=O)CCSC[C@H](NC(=O)[C@H](CC(=O)O)NC(=O)[C@H](CC(N)=O)NC(=O)[C@H](C)N)C(=O)N[C@@H](C(C)C)C(=O)N[C@@H](Cc3c[nH]c4ccccc34)C(=O)N[C@@H](Cc3c[nH]cn3)C(=O)N[C@@H](Cc3c[nH]c4ccccc34)C(=O)N[C@@H](CCC(=O)O)C(=O)N[C@@H](Cc3ccc(O)cc3)C(=O)N[C@@H](CC(=O)O)C(=O)N2)C(=O)CCSC[C@@H](C(=O)N[C@@H](C)C(N)=O)NC(=O)[C@H](CC(=O)O)NC1=O [Example 220, AND-(SEQ ID NO: 154)-A] (H-ANDCVWHWEYDCWLDCA-NH2; linker 4-12-16 via TATA; N-terminus and C-terminus assumed)",340
8,"CSCC[C@H](NC(=O)[C@H](CC(=O)O)NC(=O)CNC(=O)[C@@H]1CSCCC(=O)N2CN3CN(C2)C(=O)CCSC[C@H](N)C(=O)N[C@@H](CC(=O)O)C(=O)N[C@@H](Cc2c[nH]c4ccccc24)C(=O)N[C@@H](Cc2c[nH]cn2)C(=O)N[C@@H](Cc2c[nH]c4ccccc24)C(=O)N[C@@H](CCC(=O)O)C(=O)N[C@@H](Cc2ccc(O)cc2)C(=O)N[C@@H](CC(=O)O)C(=O)N[C@@H](CSCCC3=O)C(=O)N[C@@H](Cc2c[nH]c3ccccc23)C(=O)N[C@@H](CC(C)C)C(=O)N[C@@H](CO)C(=O)N1)C(=O)N[C@@H](CO)C(=O)N[C@H](C(=O)N[C@@H](CO)C(N)=O)C(C)C [Example 222, (SEQ ID NO: 144)-GDMSVS]",450
9,"CSCC[C@H](NC(=O)[C@H](CCC(=O)O)NC(=O)[C@H](CC(N)=O)NC(=O)[C@H](CC(=O)O)NC(=O)[C@H](Cc1ccc(O)cc1)NC(=O)[C@@H]1CSCCC(=O)N2CN3CN(C2)C(=O)CCSC[C@H](N)C(=O)N[C@@H](CC(=O)O)C(=O)N[C@@H](Cc2c[nH]c4ccccc24)C(=O)N[C@@H](Cc2c[nH]cn2)C(=O)N[C@@H](Cc2c[nH]c4ccccc24)C(=O)N[C@@H](CCC(=O)O)C(=O)N[C@@H](Cc2ccc(O)cc2)C(=O)N[C@@H](CC(=O)O)C(=O)N[C@@H](CSCCC3=O)C(=O)N[C@@H](Cc2c[nH]c3ccccc23)C(=O)N[C@@H](CC(C)C)C(=O)N[C@@H](CO)C(=O)N1)C(=O)N[C@@H](CO)C(N)=O [Example 223, (SEQ ID NO: 144)-YDNEMS]",3000
10,"CC(C)C[C@@H]1NC(=O)[C@H](Cc2c[nH]c3ccccc23)NC(=O)[C@@H]2CSCCC(=O)N3CN(CN(C3)C(=O)CCSC[C@H](N)C(=O)N[C@@H](CC(=O)O)C(=O)N[C@@H](Cc3c[nH]c4ccccc34)C(=O)N[C@@H](Cc3c[nH]cn3)C(=O)N[C@@H](Cc3c[nH]c4ccccc34)C(=O)N[C@@H](CCC(=O)O)C(=O)N[C@@H](Cc3ccc(O)cc3)C(=O)N[C@@H](CC(=O)O)C(=O)N2)C(=O)CCSC[C@@H](C(=O)N[C@@H](C)C(=O)N[C@@H](CC(N)=O)C(=O)N[C@@H](CO)C(=O)N[C@@H](CCC(=O)O)C(=O)N[C@@H](Cc2ccccc2)C(=O)N[C@@H](CCC(=O)O)C(N)=O)NC(=O)[C@H](CO)NC1=O [Example 227, (SEQ ID NO: 144)-ANSEFE]",740
11,"CC(C)C[C@@H]1NC(=O)[C@H](Cc2c[nH]c3ccccc23)NC(=O)[C@@H]2CSCCC(=O)N3CN(CN(C3)C(=O)CCSC[C@H](N)C(=O)N[C@@H](CC(=O)O)C(=O)N[C@@H](Cc3c[nH]c4ccccc34)C(=O)N[C@@H](Cc3c[nH]cn3)C(=O)N[C@@H](Cc3c[nH]c4ccccc34)C(=O)N[C@@H](CCC(=O)O)C(=O)N[C@@H](Cc3ccc(O)cc3)C(=O)N[C@@H](CC(=O)O)C(=O)N2)C(=O)CCSC[C@@H](C(=O)NCC(=O)N[C@@H](C)C(=O)NCC(=O)N[C@@H](CCC(=O)O)C(=O)N[C@@H](CO)C(=O)N[C@@H](CO)C(N)=O)NC(=O)[C@H](CO)NC1=O [Example 228, (SEQ ID NO: 144)-GAGESS]",2300
12,"CC(C)C[C@@H]1NC(=O)[C@H](CO)NC(=O)[C@@H](NC(=O)[C@H](C)N)CSCCC(=O)N2CN3CN(C2)C(=O)CCSC[C@@H](C(=O)N[C@@H](C)C(N)=O)NC(=O)[C@H]([C@@H](C)O)NC(=O)[C@H](Cc2c[nH]c4ccccc24)NC(=O)[C@H](Cc2c[nH]c4ccccc24)NC(=O)[C@H](CC(N)=O)NC(=O)[C@H](Cc2c[nH]cn2)NC(=O)[C@H](CSCCC3=O)NC(=O)[C@H](CO)NC(=O)[C@H](Cc2c[nH]c3ccccc23)NC(=O)[C@@H]2CCCN2C(=O)[C@H](CC(=O)O)NC1=O [Example 229, A-(SEQ ID NO: 156)-A] (H-ACSLDPWSCHNWWTCA-NH2; linker 2-9-15 via TATA; N-terminus and C-terminus assumed)",9900
13,"CC(C)C[C@@H]1NC(=O)[C@H](C)NC(=O)[C@@H](NC(=O)[C@H](C)N)CSCCC(=O)N2CN3CN(C2)C(=O)CCSC[C@H](NC(=O)[C@H](C(C)C)NC(=O)[C@H](Cc2c[nH]c4ccccc24)NC(=O)[C@@H]2CCCN2C(=O)[C@H](CC(=O)O)NC1=O)C(=O)N1CCC[C@H]1C(=O)N[C@@H](CCC(N)=O)C(=O)N[C@@H](Cc1c[nH]c2ccccc12)C(=O)N[C@@H](Cc1c[nH]c2ccccc12)C(=O)N[C@@H](CC(=O)O)C(=O)N[C@H](C(=O)N[C@@H](C)C(N)=O)CSCCC3=O [Example 230, A-(SEQ ID NO: 157)-A] (H-ACALDPWVCPQWWDCA-NH2; linker 2-9-15 via TATA; N-terminus and C-terminus assumed)",960
